Laboratory results reported in patent US7488834B2, “Organic semiconductors” (Alcatel-Lucent USA Inc., priority 2005, dated 2009).

Columns and labels:
[1] = Solubility in organic solvents; type: physicochemical
Protocol: Before fabricating the FETs, the solubility of the two semiconductor compositions in tetrahydrofuran (THF) was determined.

[2] = Solubility in organic solvents; type: physicochemical; remark: listed apart in the source
[3] = Viscosity of formulation or solution; type: physicochemical; settings: c = 500 ppm, cyclohexanol/THFA/THF = 86:9:5

## CC(CO)COc1ccc(-c2ccc(-c3ccc(-c4ccc(OCC(C)CO)cc4)s3)s2)cc1 (stereo not shown) [3(3OH,2Me)-O-PTTP-O-3(3OH,2Me), 3-(4-{5′-[4-(3-Hydroxy-2-methyl-propoxy)-phenyl]-[2,2′]bithiophenyl-5-yl}-phenoxy)-2-methyl-propan-1-ol]
[1]; THF
  solubility in THF: Low solubility in THF(600 ppm)

## CC(COc1ccc(-c2ccc(-c3ccc(-c4ccc(OCC(C)COC5CCCCO5)cc4)s3)s2)cc1)COC1CCCCO1 (stereo not shown) [3(3THPO,2Me)-O-PTTP-O-3(THPO,2Me), 5,5′-Bis-[4-(2-methyl-propoxy-tetrahydro-pyran)-phenoxy]-[2,2′]bithiophenyl]
[1]; THF
  solubility in THF: Well soluble in THF(about 75,000 ppm)

## CCCOCCc1ccc(-c2ccc(-c3ccc(-c4ccc(CCOCCC)cc4)s3)s2)cc1 [3O2PTTP2O3, 5,5′-Bis(4-(propxyethyl)phenyl)-2,2′-bithiophene]
[1]; compared with 6PTTP6
  solubility (in words): Solubility like6PTTP6

## CCC(CC)COc1ccc(-c2ccc(-c3ccc(-c4ccc(OCC(CC)CC)cc4)s3)s2)cc1 [4(2Et)-O-PTTP-O-4(2Et), 5,5′-bis(4-(2-ethylbutyloxy)phenyl)-2,2′-bithiophene]
[1]; THF
  solubility in THF: solubility in THF about4,900 ppm

## CC(C)CCCOc1ccc(-c2ccc(-c3ccc(-c4ccc(OCCCC(C)C)cc4)s3)s2)cc1 [5(4Me)-O-PTTP-O-5(4Me), 5,5′-bis(4-(4-methylpentyloxy)phenyl)-2,2′-bithiophene]
[1]; THF
  solubility in THF: solubility in THF about5400 ppm. DSC: mp =250° C., smaller transitionaround 173 °C (couldbe LC)
other
  melting point: 250 °C

## CCCCCC(CC)Oc1ccc(-c2ccc(-c3ccc(-c4ccc(OC(CC)CCCCC)cc4)s3)s2)cc1 (stereo not shown) [6(1Et)-O-PTTP-O-6(1Et), 5,5′-Bis-[4-(1-ethyl-hexyloxy)-phenyl]-[2,2′]bithiophenyl]
[1]; THF
  solubility in THF: Well soluble in THF(about 330,000 ppm)DSC: mp = 97-102° C.,(broad transition)
other
  melting point: 97 to 102 °C

## CCCCCC(C)Oc1ccc(-c2ccc(-c3ccc(-c4ccc(OC(C)CCCCC)cc4)s3)s2)cc1 (stereo not shown) [6(1Me)-O-PTTP-O-6(1Me), 5,5′bis(4-(1-methylhexyloxy)phenyl)-2,2′-bithiophene]
[1]; THF
  solubility in THF relative to 7(2Me)-PTTP-7(2Me): approximately twice
other
  melting point: 143 °C
[2]; 2-Ethylhexanol
  solubility in 2-Ethylhexanol: ~800 ppm
[2]; THF/cyclohexanol 2:8 (viscosity 9 mPas)
  solubility in THF/cyclohexanol 2:8: 4,000 ppm
[2]
  solubility in o-xylene: 54,000 ppm

## CCCCC(CC)COc1ccc(-c2ccc(-c3ccc(-c4ccc(OCC(CC)CCCC)cc4)s3)s2)cc1 (stereo not shown) [6(2Et)-O-PTTP-O-6(2Et), 5,5′-bis(4-(2-ethylhexyloxy)phenyl)-2,2′-bithiophene]
[1]; THF
  solubility in THF: ~70,000 ppm
other
  melting point: 148 °C
[2]
  solubility in o-xylene: ~25,000 ppm
[3]
  viscosity η of formulation: 22 mPas

## CCCCC(C)COc1ccc(-c2ccc(-c3ccc(-c4ccc(OCC(C)CCCC)cc4)s3)s2)cc1 (stereo not shown) [6(2Me)-O-PTTP-O-6(2Me), 5,5′-bis(4-(2-methylhexyloxy)phenyl)-2,2′-bithiophene]
[1]; THF
  solubility in THF: sufficiently soluble in THF(about 61,000 ppm)DSC: mp = 197 °C
other
  melting point: 197 °C

## CC(C)(C)[Si](OCCCCCCOc1ccc(-c2ccc(-c3ccc(-c4ccc(OCCCCCCO[Si](c5ccccc5)(c5ccccc5)C(C)(C)C)cc4)s3)s2)cc1)(c1ccccc1)c1ccccc1 [6(6TBDPSO)-O-PTTP-O-6(6TBDPSO), 5,5′-Bis-{4-[6-(tert-butyl-diphenyl-silanyloxy)-hexyloxy]-phenyl}-[2,2′]bithiophenyl]
[1]; THF
  solubility in THF: Well soluble in THF(about 310,000 ppm);

## CCCCCCOc1ccc(-c2ccc(-c3ccc(-c4ccc(OCCCCCC)cc4)s3)s2)cc1 [6-O-PTTP-O-6, 5,5′-bis(4-hexyloxyphenyl)-2,2′-bithiophene]
[1]; THF
  solubility in THF: solubility in THF about600 ppm, lowest value byfar. Differential scanningcalorimetry (“DSC”);melting point = 243° C.,smaller transitions at 65,148, 176, 255, 261° C.(doastereomers or LC)
other
  melting point: 243 °C

## C=CC(C=C)OC(=O)CCCCCOc1ccc(-c2ccc(-c3ccc(-c4ccc(OCCCCCC(=O)OC(C=C)C=C)cc4)s3)s2)cc1 [6-[4-(5′-[5-(1-Vinyl-allyloxycarbonyl)-pentyloxy]-phenyl}-[2,2′]bithiophenyl-5-yl)-phenoxy]-hexanoic acid 1-vinyl-allyl ester]
[1]; THF
  solubility in THF: well soluble in THF(131,000 ppm)

## CC(C)CCCC(C)CCOc1ccc(-c2ccc(-c3ccc(-c4ccc(OCCC(C)CCCC(C)C)cc4)s3)s2)cc1 (stereo not shown) [8(3,7Me)-O-PTTP-O-8(3,7Me), 5,5′-bis(4-(3,7-dimethyloctyloxy)phenyl)-2,2′-bithiophene]
[1]; THF
  solubility in THF: solubility in THF about12,000 ppmDCS: mp = 192° C., smallertransition at 143° C.(diastereomer or LC)
other
  melting point: 192 °C
